Converted amounts (≈) assume the structure as drawn. “And” between values parts separate entries of the source, which are not always exact repeats. Equal values may be shown once.
Columns and labels:
[1] = Metabolic stability in human liver microsomes assessed as intrinsic clearance preincubated for 5 mins followed by NADPH addition measured upto 60 mins by LC-MS/MS analysis; format: ADME, Microsome; settings: time < 65 min, read-out: CLH
dengue virus type 2 = test: Antiviral activity against DENV-2 16681 expressing eGFP infected in african green monkey Vero cells incubated with cells for 24 hrs followed by viral infection measured after 3 days by laser microscopic analysis; format: functional, organism-based; settings: Dengue virus, 16681, Vero
dengue virus type 3 = test: Antiviral activity against DENV-3 H87 infected in african green monkey Vero cells incubated for 24 hrs measured after 3 days post infection by RT-PCR analysis; format: functional, organism-based
[2] = Metabolic stability in human hepatocytes assessed as intrinsic clearance measured per million cells incubated upto 120 mins by LC-MS/MS analysis; format: ADME, cell-based, Hepatocyte; settings: read-out: CLH
dengue virus type 4 = test: Antiviral activity against DENV-4 H241 infected in african green monkey Vero cells incubated for 24 hrs measured after 3 days post infection by RT-PCR analysis; format: functional, organism-based
dengue virus type 1 = test: Antiviral activity against DENV-1 TC974#666 infected in african green monkey Vero cells incubated for 24 hrs measured after 3 days post infection by RT-PCR analysis; format: functional, organism-based
[3] = Chromatographic hydrophobicity index, log D of the compound at pH 7.4 by LC/MS analysis; format: physicochemical; settings: buffer
[4] = Metabolic stability in mouse liver microsomes assessed as intrinsic clearance preincubated for 5 mins followed by NADPH addition measured upto 60 mins by LC-MS/MS analysis; format: ADME, Microsome; settings: time < 65 min, read-out: CLH
[5] = Metabolic stability in rat liver microsomes assessed as intrinsic clearance preincubated for 5 mins followed by NADPH addition measured upto 60 mins by LC-MS/MS analysis; format: ADME, Microsome; settings: time < 65 min, read-out: CLH
[6] = Clearance in Sprague-Dawley rat at 2.5 mg/kg, iv measured after 24 hrs by LC-MS/MS analysis; format: ADME, organism-based; settings: in vivo
[7] = Thermodynamic solubility of the compound in aqueous buffer at pH 7.4 measured after 24 hrs by UPLC analysis; format: physicochemical; settings: read-out: Therm_solubility
[8] = Volume of distribution at steady state in Sprague-Dawley rat at 2.5 mg/kg, iv measured after 24 hrs by LC-MS/MS analysis; format: ADME, organism-based; settings: in vivo, read-out: Vdss
[9] = Oral bioavailability in Sprague-Dawley rat at 10 mg/kg measured after 24 to 48 hrs by LC-MS/MS analysis; format: ADME, organism-based; settings: in vivo, time 24-48 hrs
[10] = AUC in Sprague-Dawley rat at 10 mg/kg, po measured after 24 to 48 hrs by LC-MS/MS analysis; format: ADME, organism-based; settings: in vivo, time 24-48 hrs
[11] = Elimination half life in Sprague-Dawley rat at 2.5 mg/kg, iv measured after 24 hrs by LC-MS/MS analysis; format: ADME, organism-based; settings: in vivo, read-out: beta t1/2 (converted)
[12] = Metabolic stability in rat hepatocytes assessed as intrinsic clearance measured per million cells incubated upto 120 mins by LC-MS/MS analysis; format: ADME, cell-based, Hepatocyte; settings: read-out: CLH
[13] = Cmax in Sprague-Dawley rat at 10 mg/kg, po measured after 24 to 48 hrs by LC-MS/MS analysis; format: ADME, organism-based; settings: in vivo, time 24-48 hrs
[14] = Clearance in Sprague-Dawley rat assessed as liver blood flow at 2.5 mg/kg, iv measured after 24 hrs by LC-MS/MS analysis; format: ADME, organism-based; settings: in vivo
[15] = Dengue virus, H87, Vero, read-out: EC50
[16] = Dengue virus, TC974#666, Vero, read-out: EC50

| Structure (SMILES) | microsomal CLint [1] | EC50 (dengue virus type 2) | EC50 (dengue virus type 3; [15]) | hepatocyte CLint [2] | EC50 (dengue virus type 4) | EC50 (dengue virus type 1; [16]) | Chromatographic log D at pH 7.4 [3] | also measured |
| --- | --- | --- | --- | --- | --- | --- | --- | --- |
| COc1cc(NC(C(=O)c2c[nH]c3c(C)cc(OC(F)(F)F)cc23)c2ccc(Cl)cc2OC)cc(S(C)(=O)=O)c1 (stereo unspecified) | < 8 µL/min/mg | 0.051 nM | 1 nM | < 1.2 µL/min/1e6 cells | 11 nM | 0.1 nM | 4.16 |  |
| COc1cc(NC(C(=O)c2c[nH]c3ccccc23)c2ccc(F)cc2)cc(OCCO)c1 (stereo unspecified) | < 8 µL/min/mg | 14 nM | 950 nM |  | 2600 nM | 86 nM |  | microsomal CLint [4]: 94 µL/min/mg; microsomal CLint [5]: 24 µL/min/mg |
| COc1cc(NC(C(=O)c2c[nH]c3ccccc23)c2ccc(F)cc2)cc(S(=O)(=O)CCCO)c1 (stereo unspecified) | 35 µL/min/mg | 230 nM |  |  | 14000 nM |  |  | EC50 (dengue virus type 3; vero): Not Active; microsomal CLint [5]: 66 µL/min/mg; EC50 (dengue virus type 1; vero): Not Active |
| COc1cc(NC(C(=O)c2c[nH]c3cc(F)ccc23)c2ccc(Cl)cc2OC)cc(S(C)(=O)=O)c1 (single isomer, unassigned; (+)) | < 8 µL/min/mg |  |  |  |  |  | 3.46 | EC50 (dengue virus type 1; vero, read-out: EC50): 20 nM and 2 nM |
| COc1cc(NC(C(=O)c2c[nH]c3c(C)c(F)ccc23)c2ccc(Cl)cc2OC)cc(S(C)(=O)=O)c1 (single isomer, unassigned; (+)) | < 8 µL/min/mg | 0.24 nM | 19 nM |  | 83 nM | 2 nM | 3.73 |  |
| COc1cc(NC(C(=O)c2c[nH]c3cc(F)c(C)cc23)c2ccc(Cl)cc2OC)cc(S(C)(=O)=O)c1 (single isomer, unassigned; (+)) | < 8 µL/min/mg | 0.17 nM | 8 nM | 2.4 µL/min/1e6 cells | 44 nM | 0.4 nM | 3.68 |  |
| COc1cc(NC(C(=O)c2c[nH]c3cc(F)ccc23)c2ccc(F)cc2OCCO)cc(S(C)(=O)=O)c1 (single isomer, unassigned; (+)) |  | 1 nM | 68 nM | 27 µL/min/1e6 cells | 290 nM | 8 nM | Not Active | clearance [6]: 35 mL/min/kg; solubility thermodynamic at 24 h [7]: 1 µg/mL (≈ 1.88 µM); Vd [8]: 10 L/kg; bioavailability [9]: 27%; AUC [10]: 1250 ng·h/mL; half-life [11]: 3.9 h; hepatocyte CLint [12]: 8.8 µL/min/1e6 cells; Cmax [13]: 104 ng/mL; LBF [14]: 40% |
| COc1cc(NC(C(=O)c2c[nH]c3ccc(C(F)(F)F)cc23)c2ccc(Cl)cc2OC)cc(S(C)(=O)=O)c1 (single isomer, unassigned; (+)) | < 8 µL/min/mg | 0.31 nM | 6 nM | < 1.2 µL/min/1e6 cells | 15 nM | 0.4 nM | 3.87 |  |
| COc1cc(NC(C(=O)c2c[nH]c3cc(OC)c(C)cc23)c2ccc(F)cc2OCCO)cc(S(C)(=O)=O)c1 (single isomer, unassigned; (+)) |  | 0.84 nM | 43 nM | < 1.9 µL/min/1e6 cells | 110 nM | 3 nM | 2.98 | clearance [6]: 30 mL/min/kg; solubility thermodynamic at 24 h [7]: < 1 µg/mL; Vd [8]: 9.6 L/kg; bioavailability [9]: 18%; AUC [10]: 1010 ng·h/mL; half-life [11]: 4.2 h; hepatocyte CLint [12]: 11 µL/min/1e6 cells; Cmax [13]: 94 ng/mL; LBF [14]: 42% |
| COc1cc(NC(C(=O)c2c[nH]c3cc(OC)c(C)cc23)c2ccc(Cl)cc2OCCO)cc(S(C)(=O)=O)c1 (single isomer, unassigned; (+)) |  | 0.37 nM | 17 nM | < 1.9 µL/min/1e6 cells | 53 nM | 2 nM | 3.24 | clearance [6]: 21 mL/min/kg; solubility thermodynamic at 24 h [7]: < 1 µg/mL; Vd [8]: 7.1 L/kg; bioavailability [9]: 16%; AUC [10]: 1200 ng·h/mL; half-life [11]: 4.7 h; hepatocyte CLint [12]: 3.7 µL/min/1e6 cells; Cmax [13]: 103 ng/mL; LBF [14]: 31% |
| COc1cc(NC(C(=O)c2c[nH]c3cc(OC)c(F)cc23)c2ccc(Cl)cc2OC)cc(S(C)(=O)=O)c1 (single isomer, unassigned; (+)) | < 8 µL/min/mg | 0.34 nM | 53 nM | 10 µL/min/1e6 cells | 100 nM | 4 nM | 3.22 |  |
| COc1cc(NC(C(=O)c2c[nH]c3cc(OC)c(OC(F)(F)F)cc23)c2ccc(Cl)cc2OC)cc(S(C)(=O)=O)c1 (single isomer, unassigned; (+)) | < 8 µL/min/mg | 0.057 nM | 4 nM | < 1.2 µL/min/1e6 cells | 11 nM | 0.3 nM | 3.82 |  |
| COc1cc(NC(C(=O)c2c[nH]c3cc(OC)ccc23)c2ccc(Cl)cc2OC)cc(S(C)(=O)=O)c1 (single isomer, unassigned; (+)) | < 8 µL/min/mg | 0.3 nM | 48 nM | 10 µL/min/1e6 cells | 110 nM | 4 nM | 3.23 |  |
| COc1cc(NC(C(=O)c2c[nH]c3c(C)c(OC)ccc23)c2ccc(Cl)cc2OC)cc(S(C)(=O)=O)c1 (single isomer, unassigned; (+)) | < 8 µL/min/mg | 0.11 nM | 19 nM | 14 µL/min/1e6 cells | 95 nM | 2 nM | 3.59 |  |
| COc1cc(NC(C(=O)c2c[nH]c3cc(F)ccc23)c2ccc(Cl)cc2OCCO)cc(S(C)(=O)=O)c1 (single isomer, unassigned; (+)) |  | 0.46 nM | 9 nM | 29 µL/min/1e6 cells | 71 nM | 1 nM |  |  |

Source: ChEMBL document CHEMBL5518227, “Discovery of JNJ-1802, a First-in-Class Pan-Serotype Dengue Virus NS4B Inhibitor” (J Med Chem, 2024)
